Source: patent publication US20050112573A1, “Method of detecting toxic substance” (priority 2001, published 2005)

System: yeast genes (level of expressed mRNA)
Experiment: DNA chip analysis of expressed mRNA of yeast genes after 2 h culture with a toxic chemical substance
Assay type: cell-based, Saccharomyces cerevisiae S288C
Description: Yeast (Saccharomyces cerevtisiae S288C (α SUC2mal mel gap2 CUP1)) were cultured at 25° C. on YPD medium (yeast extract 1%, polypepton 2%, glucose 2%). One of toxic chemical substances was added to the cell at logarithmic growth phase, and the cell was further cultured for two hours. Cell was cultured without any chemical substance in the same condition, and was used as control. Concentrations of the chemical substances were defined to inhibit the growth of the yeast but not lead to death.
After the completion of cultivation, the culture was centrifuged to collect the cells. To the cells, sodium acetate buffer (50 mM sodium acetate, 10 mM EDTA, 1% SDS) was added, and the mixture was shaken at 65° C. for five minutes, followed by returning to room temperature, and obtaining the supernatant, which procedure was repeated two times. To the supernatant, ½ amount of a solution of phenol/chloroform was added, and the mixture was centrifuged to give a supernatant, which was added with an equal amount of chloroform, and the mixture was centrifuged to give a supernatant. To the supernatant, an equal amount of isopropanol containing 0.3 M sodium acetate was added, and the mixture was allowed to stand at room temperature for 30 minutes, after which the mixture was centrifuged to give a sediment of the whole RNAs. Seventy % ethanol was added to the sediment, and the mixture was again centrifuged to give a sediment, which was then dried and dissolved in water. mRNA was isolated from the whole RNAs as followings. In view of the fact that a poly A chain is attached to the 3′ terminus of mRNA, a polynucleotide having a poly T structure which was immobilized on the surface of latex beads was used to trap the mRNA, and then the mRNA was washed and eluted with spine column (Oligotex-dT30<Super>mRNA Purification Kit, Takara). Reverse transcription of the mRNA was conducted with a reverse transcriptase (Super Script II Reverse Transcriptase; catalogue No. 18064-014, GibcoBRL) using fluorescence-labeled nucleotides to give cDNAs that were introduced with Cy3-dUTP or Cy5-dUTP during the reverse transcription.
The labeled cDNAs were dissolved in TE buffer (10 mM Tris-HCl/1 mM EDTA, pH8.0), and the solution was dropped on the DNA chip containing the whole genes of yeast (DNA Chip Research Inc. Japan) so that the cDNAs were hybridized on the DNA chip at 65° C. for over 12 hours. The fluoresces intensity of the DNA chip was read with a scanner, and the ratio relative to the fluorescence intensity resulting from the absence of chemical substance was estimated as the following, which is shown in Tables 1 to 9: [formula]
In the Tables, “Intensity” indicated in the rightmost column is a value of the level of expressed mRNA of each gene in control cells as divided by the average level of the expressions of the whole genes.

O=[N+]([O-])c1cc[n+]([O-])c2ccccc12 [(5), 4-nitroquinolin-N-oxide]
The level of expressed mRNA in the presence of chemical substance/The level of expressed mRNA in the absence of chemical substance (yeast gene YKL013C): 1.9 | The level of expressed mRNA in the presence of chemical substance/The level of expressed mRNA in the absence of chemical substance (yeast gene YKL039W): 0.7 | The level of expressed mRNA in the presence of chemical substance/The level of expressed mRNA in the absence of chemical substance (yeast gene YKL041W): 1.3 | The level of expressed mRNA in the presence of chemical substance/The level of expressed mRNA in the absence of chemical substance (yeast gene YKL096W): 0.6 | The level of expressed mRNA in the presence of chemical substance/The level of expressed mRNA in the absence of chemical substance (yeast gene YKL139W): 2.8 | The level of expressed mRNA in the presence of chemical substance/The level of expressed mRNA in the absence of chemical substance (yeast gene YKL165C): 0.9 | The level of expressed mRNA in the presence of chemical substance/The level of expressed mRNA in the absence of chemical substance (yeast gene YKL193C): 1.1 | The level of expressed mRNA in the presence of chemical substance/The level of expressed mRNA in the absence of chemical substance (yeast gene YLR120C): 1.1 | The level of expressed mRNA in the presence of chemical substance/The level of expressed mRNA in the absence of chemical substance (yeast gene YLR136C): 1.6 | The level of expressed mRNA in the presence of chemical substance/The level of expressed mRNA in the absence of chemical substance (yeast gene YLR178C): 1.0 | The level of expressed mRNA in the presence of chemical substance/The level of expressed mRNA in the absence of chemical substance (yeast gene YLR250W): 1.4 | The level of expressed mRNA in the presence of chemical substance/The level of expressed mRNA in the absence of chemical substance (yeast gene YLR327C): 1.3 | The level of expressed mRNA in the presence of chemical substance/The level of expressed mRNA in the absence of chemical substance (yeast gene YLR356W): 1.1 | The level of expressed mRNA in the presence of chemical substance/The level of expressed mRNA in the absence of chemical substance (yeast gene YLR362W): 1.5 | The level of expressed mRNA in the presence of chemical substance/The level of expressed mRNA in the absence of chemical substance (yeast gene YLR391W): 1.2 | The level of expressed mRNA in the presence of chemical substance/The level of expressed mRNA in the absence of chemical substance (yeast gene YLR429W): 1.4 | The level of expressed mRNA in the presence of chemical substance/The level of expressed mRNA in the absence of chemical substance (yeast gene YMR004W): 1.0 | The level of expressed mRNA in the presence of chemical substance/The level of expressed mRNA in the absence of chemical substance (yeast gene YMR094W): 0.9 | The level of expressed mRNA in the presence of chemical substance/The level of expressed mRNA in the absence of chemical substance (yeast gene YMR104C): 0.7 | The level of expressed mRNA in the presence of chemical substance/The level of expressed mRNA in the absence of chemical substance (yeast gene YMR219W): 1.6 | The level of expressed mRNA in the presence of chemical substance/The level of expressed mRNA in the absence of chemical substance (yeast gene YMR226C): 0.9 | The level of expressed mRNA in the presence of chemical substance/The level of expressed mRNA in the absence of chemical substance (yeast gene YMR275C): 0.7 | The level of expressed mRNA in the presence of chemical substance/The level of expressed mRNA in the absence of chemical substance (yeast gene YMR276W): 1.3 | The level of expressed mRNA in the presence of chemical substance/The level of expressed mRNA in the absence of chemical substance (yeast gene YNL006W): 0.9 | The level of expressed mRNA in the presence of chemical substance/The level of expressed mRNA in the absence of chemical substance (yeast gene YNL007C): 1.2 | The level of expressed mRNA in the presence of chemical substance/The level of expressed mRNA in the absence of chemical substance (yeast gene YNL093W): 1.2 | The level of expressed mRNA in the presence of chemical substance/The level of expressed mRNA in the absence of chemical substance (yeast gene YNL333W): 1.5 | The level of expressed mRNA in the presence of chemical substance/The level of expressed mRNA in the absence of chemical substance (yeast gene YNR010W): 1.8 | The level of expressed mRNA in the presence of chemical substance/The level of expressed mRNA in the absence of chemical substance (yeast gene YNR069C): 1.4 | The level of expressed mRNA in the presence of chemical substance/The level of expressed mRNA in the absence of chemical substance (yeast gene YOL013C): 0.7 | The level of expressed mRNA in the presence of chemical substance/The level of expressed mRNA in the absence of chemical substance (yeast gene YOL164W): 1.6 | The level of expressed mRNA in the presence of chemical substance/The level of expressed mRNA in the absence of chemical substance (yeast gene YOR036W): 1.1 | The level of expressed mRNA in the presence of chemical substance/The level of expressed mRNA in the absence of chemical substance (yeast gene YOR117W): 1.2 | The level of expressed mRNA in the presence of chemical substance/The level of expressed mRNA in the absence of chemical substance (yeast gene YOR124C): 1.1 | The level of expressed mRNA in the presence of chemical substance/The level of expressed mRNA in the absence of chemical substance (yeast gene YOR132W): 1.1 | The level of expressed mRNA in the presence of chemical substance/The level of expressed mRNA in the absence of chemical substance (yeast gene YOR157C): 0.7 | The level of expressed mRNA in the presence of chemical substance/The level of expressed mRNA in the absence of chemical substance (yeast gene YOR181W): 0.7 | The level of expressed mRNA in the presence of chemical substance/The level of expressed mRNA in the absence of chemical substance (yeast gene YOR185C): 1.2 | The level of expressed mRNA in the presence of chemical substance/The level of expressed mRNA in the absence of chemical substance (yeast gene YOR198C): 0.8 | The level of expressed mRNA in the presence of chemical substance/The level of expressed mRNA in the absence of chemical substance (yeast gene YOR259C): 2.0 | The level of expressed mRNA in the presence of chemical substance/The level of expressed mRNA in the absence of chemical substance (yeast gene YOR261C): 1.5 | The level of expressed mRNA in the presence of chemical substance/The level of expressed mRNA in the absence of chemical substance (yeast gene YOR288C): 1.1 | The level of expressed mRNA in the presence of chemical substance/The level of expressed mRNA in the absence of chemical substance (yeast gene YOR355W): 1.0 | The level of expressed mRNA in the presence of chemical substance/The level of expressed mRNA in the absence of chemical substance (yeast gene YOR383C): 0.9 | The level of expressed mRNA in the presence of chemical substance/The level of expressed mRNA in the absence of chemical substance (yeast gene YPL089C): 1.4 | The level of expressed mRNA in the presence of chemical substance/The level of expressed mRNA in the absence of chemical substance (yeast gene YPL109C): 1.2 | The level of expressed mRNA in the presence of chemical substance/The level of expressed mRNA in the absence of chemical substance (yeast gene YPL149W): 0.8 | The level of expressed mRNA in the presence of chemical substance/The level of expressed mRNA in the absence of chemical substance (yeast gene YPL154C): 1.2 | The level of expressed mRNA in the presence of chemical substance/The level of expressed mRNA in the absence of chemical substance (yeast gene YPR103W): 1.7 | The level of expressed mRNA in the presence of chemical substance/The level of expressed mRNA in the absence of chemical substance (yeast gene YPR108W): 1.3
